{"source": "patent US20240335541A1", "about": "“NANOMATERIALS COMPRISING DIAMINES” (Beam Therapeutics Inc., priority 2021, published 2024)", "assay_in_all_cases": "Barcoded pooled LNP biodistribution screen, fold above input (FAI)", "assay_type_in_all_cases": "in vivo", "key": {"[1]": {"system": "Liver", "conditions": "Table 4 screening experiment; pooled LNP IV tail vein, mice, 4 hours post-dose", "method": "(§1) Male and female mice aged approximately 8-12 weeks were used for studies described by the present Example. Each mouse was temporarily restrained and pooled LNP was administered IV via tail vein injection in up to five animals per experiment. Age-matched mice was also used to administer vehicle (1×TBS) via tail vein injection in up to three animals per experiment. Additional routes of administration can also be conducted including intracerebral ventricular (ICV), intracisterna manga (ICM), intrathecal (IT), intramuscular (IM), nebulization, intranasal (IN), subcutaneous (SC), intraarticular, and intradermal (ID). At 4 hours post-dose, tissues including liver, spleen, bone marrow, testes, gastrocnemius, quadricep, lung, heart, kidney, and pancreas may be collected for analysis.\n(§2) Liver, kidney, lung, and muscle (e.g. skeletal and cardiac) tissues may be mechanically, and then enzymatically digested using a mixture of proteinases, then passed through a 70 μm filter to generate single cell suspensions. Spleen tissues were mechanically digested to generate single cell suspensions. Tissues were treated with ACK buffer to lyse red blood cells, and then stained with fluorescently-labeled antibodies for flow cytometry and fluorescence-activated cell sorting (FACS). Commercially available antibodies were used in the present example. Using a BD FACSMelody (Becton Dickinson), samples were acquired via flow cytometry to generate gates prior to sorting. In general, the gating structure was size→singlet cells→live cells→cells of interest. T cells were defined as CD45+CD3+, monocytes are defined as CD45+CD11b+, and B cells are defined as CD45+CD19+. Endothelial cells were defined as CD31+, monocytes and Kupffer cells as CD45+CD11b+ and hepatocytes and myocytes were defined as CD31−/CD45− in the liver and muscle, respectively. Tissues from vehicle-dosed mice were used to set the gates for sorting.\n(§3) RNA from tissues were extracted using the Reliaprep RNA extraction kit, and libraries were prepared using the RNAseq kit, and sequenced on either a MiSeq or NextSeq500.\n(§4) To screen for preferential LNP delivery to a target tissues, the relative abundance of each barcode in one or more target tissues was measured and compared to the relative abundance of each barcode to its corresponding relative input abundance to determine fold above input (FAI) for each barcode. If the FAI of a barcode in a target tissue is above a threshold or above the FAI of a different LNP in the same tissue, the LNP can be identified as preferentially delivering to the target tissue.\n(§5) The FAI is the normalized relative abundance of a barcode in a selected sample as compared to its frequency in the input. The FAI of a barcode indicates how a LNP's abundance changes relative to the rest of the LNP pool. The FAI value of the barcode was calculated by normalizing the relative abundance in the barcode sequence counts in the isolated samples to its relative abundance in the administration input. […] The FAI then indicates the performance of an LNP relative to the input LNP composition."}, "[2]": {"system": "Lung", "conditions": "pooled LNP IV tail vein, mice, 4 hours post-dose", "method": "as §1, §2, §3, §4, §5"}, "[3]": {"system": "Spleen", "conditions": "pooled LNP IV tail vein, mice, 4 hours post-dose", "method": "as §1, §2, §3, §4, §5"}}, "data": [{"smiles": "CCCCC/C=C\\C/C=C\\CCCCCCCCC(CCCCCCCC/C=C\\C/C=C\\CCCCC)OC(=O)CCCN(C)C", "note": "[MC3, (6Z,9Z,28Z,31Z)-heptatriaconta-6,9,28,31-tetraen-19-yl 4-(dimethylamino) butanoate]", "values": [{"measurement": "FAI (Liver)", "setting": "[1]", "result": 0.86}, {"measurement": "FAI (Lung)", "setting": "[2]; Table 4 screening experiment", "result": 1.13}, {"measurement": "FAI (Lung)", "setting": "[2]; Table 5 screening experiment", "result": 0.50}, {"measurement": "FAI (Spleen)", "setting": "[3]; Table 4 screening experiment", "result": 1.94}, {"measurement": "FAI (Spleen)", "setting": "[3]; Table 5 screening experiment", "result": 0.39}]}]}
